Assay results reported in EPA's ToxRefDB 2.

What was measured:
[1] = system: rat; conditions: Subchronic oral toxicity in rodents, fischer, Feed, dose end: 3 month, group: systemic, systemic / organ weight / liver / absolute + systemic / organ weight / liver / relative to body weight + systemic / pathology microscopic / …
[2] = system: dog; conditions: Chronic toxicity, beagle, Oral, Capsule, dose end: 53 week, group: systemic
[3] = system: dog; conditions: Subchronic oral toxicity in nonrodent, beagle, Capsule, dose end: 13 week, group: systemic
[4] = system: mouse; conditions: Carcinogenicity, b6c3f1, Oral, Feed, dose end: 2 year, group: systemic
[5] = system: rat; conditions: Prenatal developmental toxicity study, sprague dawley, Oral, Gavage/Intubation, dose end: 15 GD, group: maternal
[6] = system: rat; conditions: Multigenerational reproductive toxicity study, sprague dawley, Oral, Feed, dose end: 2 generation
[7] = system: rat; conditions: Subchronic oral toxicity in rodents, sprague dawley, Feed, dose end: 90 day, group: systemic, systemic / in life observation / clinical signs / altered breathing rate + systemic / in life observation / food consumption / food …
[8] = system: dog; conditions: Subchronic oral toxicity in nonrodent, beagle, Feed, dose end: 90 day, group: systemic, systemic / hematology / hematocrit (hct) / hematocrit (hct) + systemic / hematology / hemoglobin (hgb) / hemoglobin (hgb) + systemic / …
[9] = system: mouse; conditions: Carcinogenicity, other, Oral, Gavage/Intubation, dose end: 6 month, group: systemic
[10] = system: mouse; conditions: Carcinogenicity, other, Oral, Gavage/Intubation, dose end: 6 month, group: systemic; remark: listed apart in the source
[11] = system: mouse; conditions: Carcinogenicity; other; Oral; Gavage/Intubation; dose end: 6 month; group: systemic; systemic / in life observation / clinical signs / abnormal gait + systemic / in life observation / clinical signs / ataxia + systemic / in …
[12] = system: mouse; conditions: Carcinogenicity, cd1, Oral, Gavage/Intubation, dose end: 16 PND, group: systemic
[13] = system: rat; conditions: Combined chronic toxicity/carcinogenicity, wistar, Oral, Feed, dose end: 24 month, group: systemic
[14] = system: rat; conditions: Subchronic inhalation toxicity, fischer, Whole-Body, dose end: 14 week, group: systemic
[15] = system: mouse; conditions: Subchronic inhalation toxicity, b6c3f1, Whole-Body, dose end: 14 week, group: systemic
[16] = system: rat; conditions: Carcinogenicity, fischer, Inhalation, Whole-Body, dose end: 105 week, group: systemic
[17] = system: mouse; conditions: Carcinogenicity, b6c3f1, Inhalation, Whole-Body, dose end: 105 week, group: systemic
[18] = systemic / pathology microscopic / liver / pigmentation + systemic / clinical chemistry / alanine aminotransferase (alt/sgpt) / alanine …
[19] = systemic / pathology microscopic / spleen / pigmentation
[20] = systemic / pathology microscopic / spleen / pigmentation + systemic / in life observation / clinical signs / emesis + systemic / pathology …
[21] = systemic / pathology microscopic / liver / hyperplasia + systemic / organ weight / liver / absolute + systemic / organ weight / liver / …
[22] = systemic / in life observation / body weight / body weight + systemic / in life observation / body weight / body weight gain + systemic / in…
[23] = group: offspring, systemic / in life observation / body weight / offspring (pup) weight
[24] = group: offspring, systemic / in life observation / body weight / offspring (pup) weight + developmental / offspring survival late / viability index / …
[25] = group: parental, systemic / organ weight / liver / absolute + systemic / organ weight / liver / relative to body weight + systemic / pathology microscopic / …
[26] = group: reproductive, reproductive / offspring survival early / litter size / litter size
[27] = systemic / clinical chemistry / alanine aminotransferase (alt/sgpt) / alanine aminotransferase (alt/sgpt) + systemic / clinical chemistry / …
[28] = systemic / clinical chemistry / cholesterol / cholesterol + systemic / clinical chemistry / cholesterol / cholesterol, direct ldl + systemic…
[29] = systemic / in life observation / clinical signs / body temperature + systemic / in life observation / clinical signs / dehydration + …
[30] = systemic / pathology microscopic / liver / hypertrophy
[31] = systemic / in life observation / body weight / body weight gain + systemic / in life observation / clinical signs / dehydration + systemic…
[32] = systemic / organ weight / heart / absolute
[33] = systemic / in life observation / body weight / body weight + systemic / in life observation / body weight / body weight gain + systemic / …
[34] = systemic / pathology microscopic / nose / metaplasia
[35] = systemic / organ weight / heart / absolute + systemic / pathology microscopic / nose / degeneration + systemic / pathology microscopic / …
[36] = systemic / pathology microscopic / nose / hyaline droplet + systemic / pathology microscopic / nose / degeneration
[37] = systemic / pathology microscopic / kidney / hyperplasia + systemic / pathology microscopic / nose / atrophy + systemic / pathology …
[38] = systemic / pathology microscopic / nose / atrophy + systemic / pathology microscopic / nose / hyperplasia + systemic / pathology microscopic…
[39] = systemic / in life observation / body weight / body weight + systemic / pathology microscopic / eye / degeneration + systemic / pathology …
[40] = systemic / in life observation / body weight / body weight + systemic / pathology microscopic / nose / degeneration + systemic / pathology …

CCCCN(CC)c1c([N+](=O)[O-])cc(C(F)(F)F)cc1[N+](=O)[O-] [Benfluralin]
LEL [1]: 16.8 mg/kg/day | LOAEL [1]: > 522 mg/kg/day | NEL [1]: 3.23 mg/kg/day | NOAEL [1]: ≥ 522 mg/kg/day | LOAEL ([2]; systemic / pathology microscopic / liver / pigmentation): 25 mg/kg/day | LEL [2, 18]: 25 mg/kg/day | NEL [2, 18]: 5 mg/kg/day | NOAEL [2, 18]: 5 mg/kg/day | LEL [3, 19]: 25 mg/kg/day | LOAEL [3, 19]: 25 mg/kg/day | NEL [3, 20]: 5 mg/kg/day | NOAEL [3, 20]: 5 mg/kg/day | LOAEL ([4]; systemic / pathology microscopic / liver / hyperplasia): 185 mg/kg/day | LEL [4, 21]: 185 mg/kg/day | NEL [4, 21]: 36.4 mg/kg/day | NOAEL [4, 21]: 36.4 mg/kg/day | LOAEL ([5]; systemic / in life observation / body weight / body weight + systemic / in life observation / body weight / body weight gain): 1000 mg/kg/day | NEL [5, 22]: 225 mg/kg/day | NOAEL [5, 22]: 475 mg/kg/day | LEL ([5]; systemic / in life observation / body weight / body weight + systemic / in life observation / food consumption / food consumption): 475 mg/kg/day | LEL [6, 23]: 74.4 mg/kg/day | LOAEL [6, 23]: 74.4 mg/kg/day | NEL [6, 24]: 7.3 mg/kg/day | NOAEL [6, 24]: 7.3 mg/kg/day | LEL [6, 25]: 68.1 mg/kg/day | LOAEL [6, 25]: 68.1 mg/kg/day | NEL [6, 25]: 7.2 mg/kg/day | NOAEL [6, 25]: 7.2 mg/kg/day | LEL [6, 26]: 401 mg/kg/day | LOAEL [6, 26]: 401 mg/kg/day | NEL [6, 26]: 74.4 mg/kg/day | NOAEL [6, 26]: 74.4 mg/kg/day

O.O.O.O.O.O.O.O.O.O.[Na+].[Na+].[O-]B1OB2OB([O-])OB(O1)O2 [Borax]
LEL [7]: 770 mg/kg/day | LOAEL [7]: 770 mg/kg/day | NEL [7]: 232 mg/kg/day | NOAEL [7]: 232 mg/kg/day | LEL [8]: 192 mg/kg/day | LOAEL [8]: 192 mg/kg/day | NEL [8]: 22 mg/kg/day | NOAEL [8]: 22 mg/kg/day

CCOC(=O)C(C)(C)Oc1ccc(Cl)cc1 [Clofibrate]
LOAEL [9, 27]: > 250 mg/kg/day | NOAEL [9, 27]: ≥ 250 mg/kg/day | LEL [9, 28]: 50 mg/kg/day | NEL [9, 28]: < 50 mg/kg/day | LOAEL [10, 29]: > 650 mg/kg/day | NOAEL [10, 29]: ≥ 650 mg/kg/day | LEL [10, 30]: 50 mg/kg/day | NEL [10, 30]: < 50 mg/kg/day | LEL [11]: 200 mg/kg/day | LOAEL [11]: > 500 mg/kg/day | NEL [11]: 50 mg/kg/day | NOAEL [11]: ≥ 500 mg/kg/day | LOAEL [12, 31]: > 500 mg/kg/day | NEL [12, 31]: 100 mg/kg/day | NOAEL [12, 31]: ≥ 500 mg/kg/day | LEL ([12]; systemic / in life observation / clinical signs / palpable mass): 250 mg/kg/day

NCCO.O=C(Nc1ccc([N+](=O)[O-])cc1Cl)c1cc(Cl)ccc1O [Clonitralid]
LOAEL ([13]; systemic / in life observation / body weight / body weight gain): 410 mg/kg/day | NOAEL ([13]; systemic / in life observation / body weight / body weight gain + systemic / clinical chemistry / alanine aminotransferase (alt/sgpt) / …): 100 mg/kg/day | LEL [13, 32]: 20 mg/kg/day | NEL [13, 32]: < 20 mg/kg/day

OCc1ccco1 [Furfuryl alcohol]
LOAEL [14, 33]: > 32 ppm | NOAEL [14, 33]: ≥ 32 ppm | LEL [14, 34]: 2 ppm | NEL [14, 34]: < 2 ppm | LOAEL [15, 35]: > 32 ppm | NOAEL [15, 35]: ≥ 32 ppm | LEL [15, 36]: 2 ppm | NEL [15, 36]: < 2 ppm | LOAEL [16, 37]: > 32 ppm | NOAEL [16, 37]: ≥ 32 ppm | LEL [16, 38]: 2 ppm | NEL [16, 38]: < 2 ppm | LOAEL [17, 39]: > 32 ppm | NOAEL [17, 39]: ≥ 32 ppm | LEL [17, 40]: 2 ppm | NEL [17, 40]: < 2 ppm
